Measurements published in the supplement of paper PMC12137928.
Structures can show the parent of a compound that is named as a salt.

Assays:
[1] = system: HCT116; details: 72 h
In short: (§1)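 After seeding at 250 cells per well in 1536-well plates, HCT116 cells were given 5 h to attach. CellTiter-Glo luminescence, scaled to 0% for vehicle and -100% for positive control, was pattern-corrected. Fitting with a four-parameter Hill model produced IC50 and maximal efficacy.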

[2] = system: HCT116; test: efficacy (maximum % inhibition of viability vs DMSO); higher = more cytotoxic; details: 72 h
In short: as §1

Row | SMILES | IC50 cell viability ([1]; ICRF193 0 nM) [µM] | IC50 cell viability ([1]; ICRF193 200 nM) [µM] | efficacy ([2]; ICRF193 0 nM) [%] | efficacy ([2]; ICRF193 200 nM) [%]
1 | CCCCCCCCc1ccc(CCC(N)(CO)CO)cc1 [Fingolimod hydrochloride] | 29.1 | 20.6 | 108 | 100
2 | CCCCC[C@H](O)C=C[C@H]1[C@@H](O)CC(=O)[C@@H]1CCCCCCC(=O)O | 20.6 | 23.1 | 73.2 | 73.8
3 | CC[C@]12C=CCN3CC[C@@]4(c5cc([C@@]6(C(=O)OC)C[C@@H]7C[C@@H](C(C)(F)F)CN(Cc8c6[nH]c6ccccc86)C7)c(OC)cc5N(C)[C@H]4[C@@](O)(C(=O)OC)[C@@H]1OC(C)=O)[C@@H]32 [Vinflunine (Tartrate)] | 0.73 | > 45.8 | 60.1 | –
4 | Cc1ccc2nc(N)[nH]c(=O)c2c1Sc1ccncc1 [NOLATREXED HCL] | > 45.8 | 20.6 | – | 45.1
5 | O=c1[nH]cnc2c1ncn2[C@@H]1O[C@H](CO)[C@@H](O)[C@H]1O [(-)-Inosine] | > 45.8 | > 45.8 | – | –
6 | CC(C)NCC(O)COc1cccc2[nH]ccc12 (configuration not stated) [Pindolol] | > 45.8 | > 45.8 | – | –
7 | CC[C@H]1OC(=O)C[C@@H](O)[C@H](C)[C@@H](O[C@@H]2O[C@H](C)[C@@H](O)[C@H](N(C)C)[C@H]2O)[C@@H](CCN2CCCCC2)C[C@@H](C)C(=O)/C=C/C(C)=C/[C@@H]1CN1CCCCC1 [Tildipirosin] | > 45.8 | > 45.8 | – | –
8 | NC1=NCC2c3ccccc3Cc3ccccc3N12 (configuration not stated) [Epinastine hydrochloride] | > 45.8 | > 45.8 | – | –
9 | C[N+]1(C)CCC(OC(=O)C(O)(c2ccccc2)C2CCCC2)C1 (configuration not stated) [Glycopyrrolate bromide] | > 45.8 | > 45.8 | – | –
10 | O=C(O)P(=O)(O)O [Foscarnet trisodium] | > 45.8 | > 45.8 | – | –
11 | O=C(NCCN1CCOCC1)c1ccc(Cl)cc1 [Moclobemide] | > 45.8 | > 45.8 | – | –
12 | CC1=C(C(=O)O)N2C(=O)[C@@H](NC(=O)[C@H](N)c3ccccc3)[C@H]2SC1 [Cephalexin] | > 45.8 | > 45.8 | – | –
13 | CC1(C)OC(=O)C(OCC2CC2)=C1c1ccc(S(C)(=O)=O)cc1 [FIROCOXIB] | > 45.8 | > 45.8 | – | –
14 | CN(C)C(=O)Oc1cccc([N+](C)(C)C)c1 [Neostigmine bromide] | > 45.8 | > 45.8 | – | –
15 | CCN[C@H]1CN(CCCOC)S(=O)(=O)c2sc(S(N)(=O)=O)cc21 [Brinzolamide] | > 45.8 | > 45.8 | – | –
16 | CC(=O)Nc1c(I)c(C(=O)O)c(I)c(N(C)C(C)=O)c1I [Metrizoate sodium] | > 45.8 | > 45.8 | – | –

Now from value to compound, other results behind:

Row | IC50 cell viability ([1]; ICRF193 0 nM) [µM] | IC50 cell viability ([1]; ICRF193 200 nM) [µM] | SMILES | efficacy ([2]; ICRF193 0 nM) [%] | efficacy ([2]; ICRF193 200 nM) [%]
17 | 29.1 | 25.9 | COC(=O)[C@H]1[C@H]2C[C@@H]3c4[nH]c5ccccc5c4CCN3C[C@H]2C[C@@H](OC(=O)c2cc(OC)c(OC)c(OC)c2)[C@@H]1OC [Deserpidine] | 59.1 | 48.2
18 | 29.1 | 29.1 | C=C1/C(=C\C=C2/CCC[C@]3(C)[C@@H]([C@H](C)/C=C/[C@H](C)C(C)C)CC[C@@H]23)C[C@@H](O)C[C@@H]1O [Doxercalciferol] | 101 | 102
19 | > 45.8 | > 45.8 | CCCCN(CCCC)C(=S)[S-].CCCCN(CCCC)C(=S)[S-].[Zn+2] [Zinc dibutyldithiocarbamate] | – | –
20 | > 45.8 | > 45.8 | Nc1ccc(S(=O)(=O)c2ccc(N)cc2)cc1 [Dapsone] | – | –
21 | > 45.8 | > 45.8 | CC(=O)Oc1c(C)cc(OCC(O)CNC(C)C)c(C)c1C (configuration not stated) [Metipranolol] | – | –
22 | > 45.8 | > 45.8 | COc1ccc2c(c1)c(CC(=O)OC/C=C(\C)CC/C=C(\C)CCC=C(C)C)c(C)n2C(=O)c1ccc(Cl)cc1 [Indomethacin farnesil] | – | –
23 | > 45.8 | > 45.8 | NC[C@H]1O[C@H](O[C@H]2[C@H](O)[C@@H](O[C@H]3O[C@H](CO)[C@@H](O)[C@H](N)[C@H]3O)[C@H](N)C[C@@H]2N)[C@H](O)[C@@H](O)[C@@H]1O [Kanamycin (sulfate)] | – | –
24 | > 45.8 | > 45.8 | CC[C@@H]1CCN[C@H](C(=O)N[C@@H]([C@H]2O[C@H](SC)[C@H](O)[C@@H](O)[C@H]2O)[C@H](C)Cl)C1 [Pirlimycin Hydrochloride] | – | –
25 | > 45.8 | > 45.8 | CCCCC(CC)COC(=O)C(C#N)=C(c1ccccc1)c1ccccc1 (configuration not stated) [Octocrylene] | – | –
26 | > 45.8 | > 45.8 | Cc1ccc(/C(=C\CN2CCCC2)c2cccc(/C=C/C(=O)O)n2)cc1 [Acrivastine] | – | –
